From US4405643A, “Treatment of acute pulmonary edema with arginine esters” (Italfarmaco S.p.A., priority 1979, dated 1983)
Where a name gives a salt, the structure may show the parent alone.

Key:
[1] = system: Fibrin Degradation Products; assay: Inhibition of hyperfibrinolysis caused by urokinase (F.D.P., staphylococcal clumping test); assay type: in vivo, Wistar rats; conditions: parenteral, 30 min before urokinase 2500 U.I/rat
Protocol: The induction of hyperfibrinolysis state is caused by administration of urokinase. The determination of the inhibition is carried out by determination of the F.D.P. value, that is Fibrin Degradation Products, according to the procedure of J. Hawiger et al, J. Lab. Clin. Med. 75, 93 (1970), by means of the staphylococcal clumping test (Boehringer Mannheim GmbH test).
There are used Wistar rats of 300 grams ±10 by weight previously stabilized for a period of ten days at a temperature of 21°±1° C., under conditions of controlled diet and water "ad libitum". Twenty-four hours prior to the beginning of the experiment, the animals are divided in groups of ten for the purpose of achieving randomization. Each individual dose is tried on three groups of animals.
At the beginning of the test, zero time, the compounds being tested are administered through the parenteral route. In the case of the control animals, at the same time an equal volume of a physiological saline solution is administered except that some blood is removed by means of a cardiac puncture, for the purpose of determining the basal fibrinolytic activity. After 30 minutes, human urokinase (the composition marketed by Ukidan-Serono) is administered intravenously in the amount of 2500 U.I/rat. After an additional period of ten minutes, blood is removed by means of a cardiac puncture for the final determination of F.D.P., a determination which is expressed in […].

[2] = Protection against anaphylactic shock (horse serum); assay type: in vivo, male albino guinea pigs; conditions: parenteral, with horse serum challenge, after 12 h
Protocol: The anaphylactic shock has been induced according to the method of S. M. Feinberg, M. Pharmacol. Exp. Therapeut., 99, 195 (1950). There have been used male albino guinea pigs of average weight, 350±20 grams previously stabilized for a period of ten days at a temperature of 21°±1° C., under conditions of controlled diet and water "ad libitum". Three days before the beginning of the experiment, the animals are divided in groups of ten for the purpose of achieving good randomization. Each single dose has been tried on three groups of animals.
The sensitization has been carried out by administration of 1 ml/guinea pig through the endovenous route of horse serum, (whole serum, not treated with preservatives) diluted 1:10 in physiological saline solution. After 14 days, the solutions of the substances being tested and the samples of physiological solutions for use with the controls are administered through the parenteral route. Simultaneously, 1 ml/guinea pig of horse serum, undiluted is administered, this substance being used as the agent which prompts the anaphylaxis. The percentage of mortality is determined after 12 hours.

[3] = Protection against pulmonary edema (adrenaline-induced acute edema of the lungs); assay type: in vivo, male albino rats of Wistar type; conditions: parenteral, 15 min before adrenaline
Protocol: The method of A. M. Rothschild and A. Castania (Arch. Pharmacol., 295, 177 (1976)), has been used to develop the acute edema in the lungs and substances of known therapeutic activity have been used for comparison purpose.
For the test, male albino rats of Wistar type of average weight 250-350 grams, have been used for the test. The rats were stabilized for a period of ten days at a temperature of 21°±1° C., under conditions of controlled diet and water "ad libitum". Prior to the test, the animals were divided into groups of ten for the purpose of achieving good randomization. Each dose was tried on three groups of animals. The animals were anesthetized with pentobarbital in a dose of 30 mg/kg at the beginning of the test. After the animals were in complete narcosis, the following substances were administered by the parenteral route:
1. to the animals as controls, physiological saline solution in the amount of 1 ml/kg,
2. to the animals in the test, a solution of the substance being tested in physiological saline solution in the amount of 1 ml/kg in the doses reported hereinbelow in the table.
After a period of 15 minutes, for the purpose of determining the protective activity of the substances, adrenaline was administered in the amount of 16 γ/kg by the endovenous route and in physiological saline solution, for the purpose of causing acute edema.
After five minutes, the animals were killed by removal of the head, the lungs were removed and the weight of the lungs were determined. The results of the test are reported in Table 1 hereinbelow, together with the concentration of the substances and the relative inhibition of edema in percent.

[4] = Protection against shock caused by endotoxins (lipopolysaccharide B from S. Enteritidis); assay type: in vivo, male rats of Wistar type; conditions: parenteral, 1 h before endotoxin, after 24 h
Text: Endotoxin-induced shock has been produced according to the method reported by A. Bertelli and L. Donati, in the publication "The Influence of Some Enzymes and Enzymes Inhibitors in Shock", published in "SHOCK Biochemical,Pharmaceutical and Clinical Aspects"; A. Bertelli and N. Back Editors, Advances in Experimental Medicine and Biology; Volume 9, Plenum Press New York - London 1970, page 215. By way of comparison, there has been used a substance of well known therapeutical activity, specifically aprotinine, the commercial products marketed by Farbenfabriken Bayer, under the name "Trasylol". Male rats of Wistar type of 120 grams by weight ±10 have been used. The rats were previously stabilized for a period of ten days at a temperature of 21°±1° C. under a controlled diet and water "ad libitum". Twenty-four hours prior to the test, the animals were divided in groups of ten for the purpose of achieving randomization. Every single dose has been tried on six groups of animals.
Lipopolysaccharide B from S. Enteritidis (Difco Labs.) was used as the endotoxin. This substance was administered in the dose of 10 mg/kg by the endoperitoneal route, one hour after administration of the substance being administered by the parenteral route or in the form of a physiological solution in equal volume per kilogram to the animals being used as control.
The mortality in percent was determined in the animals being tested as compared with the controls after twenty-four hours.

## COC(=O)[C@H](N)CCCNC(=N)N [D-A.M., DArginine methyl ester hydrochloride]
[1]; dose 5 mg/kg
  F.D.P.: 3.10 milliliters
[1]; dose 10 mg/kg
  F.D.P.: 3.03 milliliters
[1]; dose 20 mg/kg
  F.D.P.: 3.16 milliliters
[2]; dose 10 mg/kg
  % MORTALITY: 78.8%
[2]; dose 20 mg/kg
  % MORTALITY: 81.0%
[2]; dose 50 mg/kg
  % MORTALITY: 76.3%
[3]; dose 1 mg/kg
  % INHIBITION OF EDEMA: 16.8%
[3]; dose 2.5 mg/kg
  % INHIBITION OF EDEMA: 11.7%
[3]; dose 5 mg/kg
  % INHIBITION OF EDEMA: 15.4%
[3]; dose 10 mg/kg
  % INHIBITION OF EDEMA: 4.4%
[3]; dose 20 mg/kg
  % INHIBITION OF EDEMA: 6.4%
[4]; dose 5 mg/kg
  % MORTALITY: 71.2%
[4]; dose 10 mg/kg
  % MORTALITY: 68.5%
[4]; dose 20 mg/kg
  % MORTALITY: 69%
[4]; dose 50 mg/kg
  % MORTALITY: 73%

## CO [Methanol]
[1]; dose 2 mg/kg
  F.D.P.: 3.02 milliliters
[1]; dose 4 mg/kg
  F.D.P.: 3.12 milliliters
[1]; dose 8 mg/kg
  F.D.P.: 3.27 milliliters
[2]; dose 2 mg/kg
  % MORTALITY: 76.6%
[2]; dose 4 mg/kg
  % MORTALITY: 79.4%
[2]; dose 8 mg/kg
  % MORTALITY: 81%
[3]; dose 0.08 mg/kg
  % INHIBITION OF EDEMA: 2.3%
[3]; dose 0.8 mg/kg
  % INHIBITION OF EDEMA: 5%
[3]; dose 2 mg/kg
  % INHIBITION OF EDEMA: 12%
[3]; dose 4 mg/kg
  % INHIBITION OF EDEMA: 6%
[3]; dose 8 mg/kg
  % INHIBITION OF EDEMA: 15%
[3]; dose 16 mg/kg
  % INHIBITION OF EDEMA: 15%
[4]; dose 2 mg/kg
  % MORTALITY: 76%
[4]; dose 4 mg/kg
  % MORTALITY: 72%
[4]; dose 8 mg/kg
  % MORTALITY: 74%

## CCO [Ethanol]
[1]; dose 2 mg/kg
  F.D.P.: 3.06 milliliters
[1]; dose 4 mg/kg
  F.D.P.: 2.95 milliliters
[1]; dose 8 mg/kg
  F.D.P.: 3.11 milliliters
[2]; dose 2 mg/kg
  % MORTALITY: 76.4%
[2]; dose 4 mg/kg
  % MORTALITY: 74%
[2]; dose 8 mg/kg
  % MORTALITY: 76.5%
[3]; dose 0.08 mg/kg
  % INHIBITION OF EDEMA: 7%
[3]; dose 0.8 mg/kg
  % INHIBITION OF EDEMA: 12%
[3]; dose 2 mg/kg
  % INHIBITION OF EDEMA: 15%
[3]; dose 4 mg/kg
  % INHIBITION OF EDEMA: 14.7%
[3]; dose 8 mg/kg
  % INHIBITION OF EDEMA: 16%
[3]; dose 16 mg/kg
  % INHIBITION OF EDEMA: 15.9%
[4]; dose 2 mg/kg
  % MORTALITY: 67%
[4]; dose 4 mg/kg
  % MORTALITY: 69%
[4]; dose 8 mg/kg
  % MORTALITY: 73%

## Aprotinin
[1]; dose 1000 U.I.K./kg
  F.D.P.: 0.34 milliliters
[1]; dose 3000 U.I.K./kg
  F.D.P.: 0.29 milliliters
[1]; dose 10000 U.I.K./kg
  F.D.P.: 0.30 milliliters
[2]; dose 3000 U.I.K./kg
  % MORTALITY: 40%
[2]; dose 10000 U.I.K./kg
  % MORTALITY: 55%
[2]; dose 100000 U.I.K./kg
  % MORTALITY: 80%
[3]; dose 30 U.I.K./kg
  % INHIBITION OF EDEMA: 17.3%
[3]; dose 100 U.I.K./kg
  % INHIBITION OF EDEMA: 36.5%
[3]; dose 300 U.I.K./kg
  % INHIBITION OF EDEMA: 54.5%
[3]; dose 1000 U.I.K./kg
  % INHIBITION OF EDEMA: 42.7%
[4]; dose 1000 U.I.K./kg
  % MORTALITY: 50.0%
[4]; dose 3000 U.I.K./kg
  % MORTALITY: 65.0%
[4]; dose 10000 U.I.K./kg
  % MORTALITY: 65.0%
[4]; dose 100000 U.I.K./kg
  % MORTALITY: 93.3%

## NC[C@H]1CC[C@H](C(=O)O)CC1 [Tranexamic Acid, trans4-(aminomethyl)cyclohexancarboxylic acid]
[1]; dose 5 mg/kg
  F.D.P.: 0.58 milliliters
[1]; dose 10 mg/kg
  F.D.P.: 0.39 milliliters
[1]; dose 20 mg/kg
  F.D.P.: 0.33 milliliters

## N=C(N)NCCC[C@H](N)C(=O)O [L-Arginine.2HCl]
[1]; dose 5 mg/kg
  F.D.P.: 3.28 milliliters
[1]; dose 10 mg/kg
  F.D.P.: 2.96 milliliters
[1]; dose 20 mg/kg
  F.D.P.: 3.15 milliliters
[2]; dose 10 mg/kg
  % MORTALITY: 78.5%
[2]; dose 20 mg/kg
  % MORTALITY: 76.3%
[2]; dose 50 mg/kg
  % MORTALITY: 80%
[3]; dose 1 mg/kg
  % INHIBITION OF EDEMA: 7%
[3]; dose 2.5 mg/kg
  % INHIBITION OF EDEMA: 9%
[3]; dose 5 mg/kg
  % INHIBITION OF EDEMA: 11%
[3]; dose 10 mg/kg
  % INHIBITION OF EDEMA: 10.1%
[3]; dose 20 mg/kg
  % INHIBITION OF EDEMA: 13.1%
[4]; dose 5 mg/kg
  % MORTALITY: 69%
[4]; dose 10 mg/kg
  % MORTALITY: 73%
[4]; dose 20 mg/kg
  % MORTALITY: 71%
[4]; dose 50 mg/kg
  % MORTALITY: 78%

## CC(=O)Oc1ccccc1C(=O)O [Aspirin]
[3]; dose 1 mg/kg
  % INHIBITION OF EDEMA: 32.2%
[3]; dose 2.5 mg/kg
  % INHIBITION OF EDEMA: 36.9%
[3]; dose 5 mg/kg
  % INHIBITION OF EDEMA: 48.2%
[3]; dose 10 mg/kg
  % INHIBITION OF EDEMA: 54.3%
[3]; dose 20 mg/kg
  % INHIBITION OF EDEMA: 19.6%
